According to patent US20250122225A1, “MASP-2 INHIBITORS AND METHODS OF USE” (Omeros Corporation, priority 2023, published 2025):
pKi: −log10 of the molar value. Structures can show the parent of a compound that is named as a salt.

Key:
MASP-2 (CCP1-CCP2-SP) = molecular target: T1, MASP-2 (CCP1-CCP2-SP) (Homo sapiens, UniProt O00187); assay: Enzymatic assay for MASP-2 inhibitory activity (fluorogenic substrate); type: biochemical
T1 construct: 15 μL of Enzyme MASP-2 (CCP1-CCP2-SP) in Assay Buffer
Procedure: The MASP-2 assay utilizes a fluorogenic substrate, based on the cleavage site for its natural substrate C2. The assay was run at room temperature in an assay buffer containing 20 mM HEPES, pH 7.4, 140 mM NaCl and 0.1% Tween 20. Assay parameters were adjusted such that the assay was linear with respect to time, enzyme, and substrate concentrations. Under the optimized assays conditions, IC50 values were equivalent to Ki values, except in the few cases of “tight binding” inhibitors. Cases of “tight binding” or possible “slow binding” inhibitors were handled by the methods described in Copeland R. A. (2013) Evaluation of Enzyme Inhibitors in Drug Discovery. 2nd Ed., John Wiley and Sons, Inc., Chapters 5-7.
The MASP-2 assay protocol was carried out as follows. Test compounds were serially diluted in DMSO and then 100 nL of each dilution was transferred to the assay plate(s). 10 μL of Assay Buffer was added, followed by 15 μL of Enzyme MASP-2 (CCP1-CCP2-SP) in Assay Buffer. 15 μL of Substrate in Assay Buffer was then added and the mixture was mixed to start the reaction. After 20 min at room temperature, 15 μL of a stop solution (0.1 M acetic acid) was added, the sample was mixed, and the plates were read on a SpectraMax i3x Microplate Reader with the data exported as an Excel file. Each assay plate included a “no inhibitor” (DMSO only) control, a “no enzyme” control, and a reference inhibitor control. % Activity values=100*(average test comp. fluorescence−average “no enzyme” fluorescence)/(average “DMSO only” fluorescence−average “no enzyme” fluorescence). IC50 and Ki replicate values were very reproducible, with values well within ±2-fold.

human α-thrombin = molecular target: T2, human α-thrombin (Homo sapiens, UniProt P00734); assay: Enzymatic assay for thrombin (fluorogenic peptide substrate Boc-VPR-AMC); type: biochemical
T2 construct: enzyme (human α-thrombin (BioPharm® Lab.)) in assay buffer; purchased BioPharm® Lab
Procedure: The thrombin assay utilizes a fluorogenic peptide substrate (Boc-VPR-AMC (R&D Systems) and was run at room temperature in an assay buffer containing 20 mM Hepes, pH 7.4, 140 mM NaCl and 0.1% Tween 20. Assay parameters were adjusted such that the assay was linear with respect to time, enzyme, and substrate concentrations. Under these optimized assays conditions, IC50 values were equivalent to Ki values, except in a few cases of “tight binding” inhibitors. Cases of “tight binding” or possible “slow binding” inhibitors were handled by the methods described in Copeland R. A. (2013) Evaluation of Enzyme Inhibitors in Drug Discovery. 2nd Ed. John Wiley and Sons, Inc., Chapters 5-7.
The thrombin assay protocol was carried out as follows. Test compounds were serially diluted in DMSO and then 100 nL of each dilution was transferred to the assay plate(s). 10 μL of Assay Buffer was added, followed by 15 μL of enzyme (human α-thrombin (BioPharm® Lab.)) in assay buffer. 15 μL of substrate in assay buffer was then added and the sample mixed to start the reaction. After 20 min at room temperature, 15 μL of a stop solution (0.1 M acetic acid) was added, the sample was mixed, and the plates were read on a SpectraMax® i3x Microplate Reader with the data exported as Excel files. Each assay plate included a “no inhibitor” (DMSO only) control, a “no enzyme” control, and a reference inhibitor control. % Activity values=100*(ave. test comp. fluorescence−ave. “no enz” fluorescence)/(ave. “DMSO only” fluorescence−ave. “no enz” fluorescence). IC50 and Ki values were very reproducible, with values falling well within ±2-fold.

T1 sequence (O00187 445-686 limits assumed): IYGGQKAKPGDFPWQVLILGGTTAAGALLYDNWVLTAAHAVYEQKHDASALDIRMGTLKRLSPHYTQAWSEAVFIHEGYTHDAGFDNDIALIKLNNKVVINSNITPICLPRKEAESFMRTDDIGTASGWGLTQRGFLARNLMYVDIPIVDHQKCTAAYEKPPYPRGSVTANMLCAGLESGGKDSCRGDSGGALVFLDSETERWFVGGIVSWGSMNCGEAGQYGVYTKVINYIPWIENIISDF
T1 sequence (O00187 287-444 partner limits assumed): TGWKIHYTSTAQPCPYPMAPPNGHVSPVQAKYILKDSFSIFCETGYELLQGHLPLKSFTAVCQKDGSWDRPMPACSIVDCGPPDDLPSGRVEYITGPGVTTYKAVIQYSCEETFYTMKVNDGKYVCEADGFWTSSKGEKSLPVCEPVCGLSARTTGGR

Row | Structure (SMILES) | pKi (MASP-2 (CCP1-CCP2-SP)) | pKi (human α-thrombin)
1 | O=C(NCc1cc2c(s1)CNC2)[C@@H]1CCc2c(Cl)nc(NCc3ccccc3)c(=O)n21 [Compound 35] | > 6.30 | 5.00 to 5.60
2 | Cc1cc(F)cc(CNc2ncc3n(c2=O)[C@H](C(=O)NCc2cnc4[nH]ccc4c2)CC3)c1 [Compound 183, (S)-N-((1H-pyrrolo[2,3-b]pyridin-5-yl)methyl)-3-((3-fluoro-5-methylbenzyl)amino)-4-oxo-4,6,7,8-tetrahydropyrrolo[1,2-a]pyrazine-6-carboxamide] | 5.60 to 6.30 | 5.00 to 5.60
3 | CC(C)c1cccc(CNc2ncc3n(c2=O)[C@H](C(=O)NCc2ccc(N)nc2)CC3)c1 [Compound 207, (S)—N-((6-aminopyridin-3-yl)methyl)-3-((3-isopropylbenzyl)amino)-4-oxo-4,6,7,8-tetrahydropyrrolo[1,2-a]pyrazine-6-carboxamide trifluoroacetate] | > 6.30 | > 6.30
4 | Cc1nc(N)ccc1CNC(=O)[C@@H]1CCc2cnc(NCc3cccc(S(C)(=O)=O)c3)c(=O)n21 [Compound 99, (S)—N-((6-amino-2-methylpyridin-3-yl)methyl)-3-((3-(methylsulfonyl)benzyl)amino)-4-oxo-4,6,7,8-tetrahydropyrrolo[1,2-a]pyrazine-6-carboxamide trifluoroacetate] | > 6.30 | > 6.30
5 | CC[C@H]1C[C@@H](C(=O)NCc2cc3c(s2)CNC3)n2c1cnc(NCc1ccccc1)c2=O [Compound 161, (6S,8S)-3-(benzylamino)-N-((5,6-dihydro-4H-thieno[2,3-c]pyrrol-2-yl)methyl)-8-ethyl-4-oxo-4,6,7,8-tetrahydropyrrolo[1,2-a]pyrazine-6-carboxamide hydrochloride] | > 6.30 | 5.60 to 6.30
6 | C[C@H](NC(=O)[C@@H]1CCc2cnc(N[C@@H](c3ccccc3)C3CC3)c(=O)n21)c1cc2c(s1)CNC2 [Compound 273, (S)-3-(((R)-cyclopropyl(phenyl)methyl)amino)-N-((S)-1-(5,6-dihydro-4H-thieno[2,3-c]pyrrol-2-yl)ethyl)-4-oxo-4,6,7,8-tetrahydropyrrolo[1,2-a]pyrazine-6-carboxamide trifluoroacetate] | 5.00 to 5.60 | < 4.60
7 | O=C(NCc1cc2cnccc2[nH]1)[C@@H]1CCc2c(Cl)nc(NCc3cccc(C4CC4)c3)c(=O)n21 [Compound 133, (S)-N-((1H-pyrrolo[3,2-c]pyridin-2-yl)methyl)-1-chloro-3-((3-cyclopropylbenzyl)amino)-4-oxo-4,6,7,8-tetrahydropyrrolo[1,2-a]pyrazine-6-carboxamide] | > 6.30 | 5.00 to 5.60
8 | CCc1cccc([C@@H](CC)Nc2ncc3n(c2=O)[C@H](C(=O)NCc2cc4c(s2)CNC4)CC3)c1 [Compound 268, (S)-N-((5,6-dihydro-4H-thieno[2,3-c]pyrrol-2-yl)methyl)-3-(((R)-1-(3-ethylphenyl)propyl)amino)-4-oxo-4,6,7,8-tetrahydropyrrolo[1,2-a]pyrazine-6-carboxamide trifluoroacetate] | > 6.30 | > 6.30
9 | Cc1cccc(CNc2nc(Cl)c3n(c2=O)[C@H](C(=O)NCc2ccc(N)nc2C)CC3)c1F [Compound 12, (S)-N-((6-amino-2-methylpyridin-3-yl)methyl)-1-chloro-3-((2-fluoro-3-methylbenzyl)amino)-4-oxo-4,6,7,8-tetrahydropyrrolo[1,2-a]pyrazine-6-carboxamide] | > 6.30 | 5.00 to 5.60
10 | Cc1cc2[nH]c(CNC(=O)[C@@H]3C[C@H](Cc4ccccc4)c4cnc(NC5CCC5)c(=O)n43)cc2cn1 [Compound 139, (6S,8S)-8-benzyl-3-(cyclobutylamino)-N-((6-methyl-1H-pyrrolo[3,2-c]pyridin-2-yl)methyl)-4-oxo-4,6,7,8-tetrahydropyrrolo[1,2-a]pyrazine-6-carboxamide] | > 6.30 | 4.60 to 5.00
11 | CC(C)[C@@H](Nc1ncc2n(c1=O)[C@H](C(=O)N[C@H](C)c1cc3c(s1)CNC3)CC2)c1ccccc1 [Compound 274, (S)-N-((R)-1-(5,6-dihydro-4H-thieno[2,3-c]pyrrol-2-yl)ethyl)-3-(((R)-2-methyl-1-phenylpropyl)amino)-4-oxo-4,6,7,8-tetrahydropyrrolo[1,2-a]pyrazine-6-carboxamide trifluoroacetate] | > 6.30 | 5.60 to 6.30
12 | Cc1nc(N)ccc1CNC(=O)[C@@H]1CCc2c(Cl)nc(NCc3cccc(C(F)F)c3)c(=O)n21 [Compound 16, (S)-N-((6-amino-2-methylpyridin-3-yl)methyl)-1-chloro-3-((3-(difluoromethyl)benzyl)amino)-4-oxo-4,6,7,8-tetrahydropyrrolo[1,2-a]pyrazine-6-carboxamide] | > 6.30 | 5.00 to 5.60
13 | Cc1cc(F)cc(CNc2ncc3n(c2=O)[C@H](C(=O)NCc2ccc(N)c(Cl)c2)CC3)c1 [Compound 188, (S)-N-(4-amino-3-chlorobenzyl)-3-((3-fluoro-5-methylbenzyl)amino)-4-oxo-4,6,7,8-tetrahydropyrrolo[1,2-a]pyrazine-6-carboxamide] | > 6.30 | > 6.30
14 | O=C(NCc1cc2cnccc2[nH]1)[C@@H]1CCc2cnc(NCc3cccc(C(F)(F)F)c3)c(=O)n21 [Compound 117, (S)-N-((1H-pyrrolo[3,2-c]pyridin-2-yl)methyl)-4-oxo-3-((3-(trifluoromethyl)benzyl)amino)-4,6,7,8-tetrahydropyrrolo[1,2-a]pyrazine-6-carboxamide trifluoroacetate] | > 6.30 | 5.00 to 5.60
15 | Cc1nc(N)ccc1CNC(=O)[C@@H]1CCc2cnc(NCc3cccc(C(C)C)c3)c(=O)n21 [Compound 208] | > 6.30 | > 6.30
16 | O=C(NCc1cc(Cl)ccc1-n1cnnn1)[C@@H]1CCc2c(Cl)nc(NCc3ccccc3)c(=O)n21 [Compound 107, (S)-3-(benzylamino)-1-chloro-N-(5-chloro-2-(1H-tetrazol-1-yl)benzyl)-4-oxo-4,6,7,8-tetrahydropyrrolo[1,2-a]pyrazine-6-carboxamide] | 5.60 to 6.30 | > 6.30
17 | Cc1cc(C)cc(CNc2ncc3n(c2=O)[C@H](C(=O)NCc2cc4cnccc4[nH]2)C[C@@H]3C)c1 [Compound 153, (6S,8S)-N-((1H-pyrrolo[3,2-c]pyridin-2-yl)methyl)-3-((3,5-dimethylbenzyl)amino)-8-methyl-4-oxo-4,6,7,8-tetrahydropyrrolo[1,2-a]pyrazine-6-carboxamide] | > 6.30 | 5.00 to 5.60
18 | O=C(NCc1cc2cnccc2[nH]1)[C@@H]1CCc2c(Cl)nc(NCC3CCCCC3)c(=O)n21 [Compound 112, (S)-N-((1H-pyrrolo[3,2-c]pyridin-2-yl)methyl)-1-chloro-3-((cyclohexylmethyl)amino)-4-oxo-4,6,7,8-tetrahydropyrrolo[1,2-alpyrazine-6-carboxamide trifluoroacetate] | > 6.30 | < 4.60
19 | Cc1cc2[nH]c(CNC(=O)[C@@H]3CCc4cnc(NCc5cccc(C)c5C)c(=O)n43)cc2cn1 [Compound 58, (S)-3-((2,3-dimethylbenzyl)amino)-N-((6-methyl-1H-pyrrolo[3,2-c]pyridin-2-yl)methyl)-4-oxo-4,6,7,8-tetrahydropyrrolo[1,2-a]pyrazine-6-carboxamide] | > 6.30 | < 4.60
20 | Cc1cc(F)cc(CNc2ncc3n(c2=O)[C@H](C(=O)NC(C#N)c2cccc(Cl)c2)CC3)c1 (stereo partly drawn) [Compound 185, (6S)-N-((3-chlorophenyl)(cyano)methyl)-3-((3-fluoro-5-methylbenzyl)amino)-4-oxo-4,6,7,8-tetrahydropyrrolo[1,2-a]pyrazine-6-carboxamide] | 5.00 to 5.60 | 5.00 to 5.60
21 | Cc1ccccc1CNc1ncc2n(c1=O)[C@H](C(=O)NCc1ccc(N)nc1C)CC2 [Compound 52, (S)-N-((6-amino-2-methylpyridin-3-yl)methyl)-3-((2-methylbenzyl)amino)-4-oxo-4,6,7,8-tetrahydropyrrolo[1,2-a]pyrazine-6-carboxamide] | > 6.30 | > 6.30
